Assay results from patent US20260325605A1, “INHIBITORS” (Zealand Pharma A/S, priority 2022, published 2026).

Experiments:
[1] = system: T-cell activation in rat whole blood; assay: Example 4: IL-17A release in thapsigargin stimulated rat whole blood; assay type: cell-based, rat (Lewis or Sprague-Dawley); conditions: 24 Hr, at least 2 replicates, unit inferred, read-out: IC50 (inhibition of IL-17A release)
Excerpt: Rat whole blood was used to assess the potency of Kv1.3 inhibitor peptides on T-cell activation as determined by IL-17A release after stimulation with thapsigargin. Addition of thapsigargin results in activation of a signalling cascade ending up in activation of T cell proliferation and cytokine production where the Kv1.3 ion channel plays a key role, so activity of Kv1.3 inhibitors in primary cells can be measured in this experimental system.
Rat whole blood was obtained from healthy, naïve Lewis or Sprague-Dawley rats that were terminally bleed from the heart using Sodium Heparin blood sampling tubes for collection. Peptides were diluted to 4× final testing concentrations in assay buffer (DMEM+GlutaMAX), GlutaMAX is a medium comprising 3.97 mM L-alanine-L-glutamine (Gibco Cat #61965026) supplemented with 25 mM HEPES buffer, 1 mM Sodium Pyruvate, 100 units/ml Penicillin, 100 μg/ml Streptomycin and 0.05% Casein from bovine milk (Sigma-Aldrich)) and 25 μl was added to wells of a 96 well plate. Then 50 μl whole rat blood was added and incubated for minimum 5 minutes at room temperature to allow compound binding. Then 25 μl 40 μM thapsigargin diluted in assay buffer was added to all wells of the assay plates to activate the cells, followed by incubation for 24 Hr at 37° C./5% CO2 in a humidified box. The assay plates were centrifuged for 10 min at 300 g at 4° C. and the supernatants were transferred to new plates. The concentrations of IL-17A released to the supernatants were measured using a Rat IL-17A ELISA Kit (Abcam Cat #ab214028) as recommended by the manufacturer. Samples were diluted 2.5-fold by transferring 20 μl of the supernatants to wells on ELISA plates containing 30 μl buffer 75BS from the detection kit.
Data from peptides eliciting an inhibition of IL-17A were normalised relative to full thapsigargin activation (no inhibitor added) and no activation controls (addition of assay buffer instead of thapsigargin) to calculate the IC50 from the concentration response curve.
Results are shown in Table 5, expressed as IC50, with standard deviation (IC50_SD). All values are derived from at least 2 replicates. The biological effects ex vivo show a correlation with the potency of the peptides.

[2] = target: T1, Kv1.1 (Homo sapiens, UniProt Q09470); assay: Patch clamp assay (QPatch), Kv1.1; assay type: cell-based; conditions: for IC50: QPatch, CHO cells stably expressing human Kv1.1, read-out: Potency IC50, Kv1.1; for Selectivity Kv1.1/Kv1.3: ratio of IC50 Kv1.1/Kv1.3
T1 construct: expressed in transfected cells

[3] = target: T2, Kv1.2 (Homo sapiens, UniProt P16389); assay: Patch clamp assay (QPatch), Kv1.2; assay type: cell-based; conditions: for IC50: QPatch, CHO cells stably expressing human Kv1.2, read-out: Potency IC50, Kv1.2; for Selectivity Kv1.2/Kv1.3: ratio of IC50 Kv1.2/Kv1.3
T2 construct: expressed in transfected cells
Experimental: Selectivity of Kv1.3 inhibitor peptides for Kv1.3 over other potassium ion channels (Kv1.1, Kv1.2 and Kv1.6) was determined using patch clamp assay.
Chinese Hamster Ovary (CHO) cell lines stably expressing exogenous human α-subunits of each potassium ion channel were grown and passaged under standard culture conditions.
The automated, chip-based planar patch clamp device QPatch® was used to quantitate the ionic currents. All recordings were made in the conventional whole-cell configuration after establishment of gigaohm seals. […] During experiments 0.1% (v/v) BSA was included as a vehicle in all external recording solutions. Currents were elicited from a holding potential of −80 mV using a voltage protocol, which shifted the voltage to 30 mV for 500 ms every 15 s.
Concentration-response relationships were established by cumulatively applying seven escalating concentrations of test sample to an individual cell with a recording period of 2 min per compound application.
The efficacy was determined as the mean charge for the last three sweeps at the end of each concentration application period from the cursor positions. The percent inhibition for each test dose application period was calculated as the reduction in mean cursor value (charge) relative to the cursor value measured at the end of the vehicle period and used to calculate the IC50 from the concentration response curve.

[4] = target: T3, Kv1.6 (Homo sapiens, UniProt P17658); assay: Patch clamp assay (QPatch), Kv1.6; assay type: cell-based; conditions: for IC50: QPatch, CHO cells stably expressing human Kv1.6, read-out: Potency IC50, Kv1.6; for Selectivity Kv1.6/Kv1.3: ratio of IC50 Kv1.6/Kv1.3
T3 construct: expressed in transfected cells

[5] = target: T4, Kv1.3 (Homo sapiens, UniProt P22001); assay: Patch clamp assay (QPatch), Kv1.3; assay type: cell-based; conditions: CHO cells stably expressing human Kv1.3, read-out: Potency IC50, Kv1.3
T4 construct: expressed in transfected cells
T4 sequence (P22001 whole entry): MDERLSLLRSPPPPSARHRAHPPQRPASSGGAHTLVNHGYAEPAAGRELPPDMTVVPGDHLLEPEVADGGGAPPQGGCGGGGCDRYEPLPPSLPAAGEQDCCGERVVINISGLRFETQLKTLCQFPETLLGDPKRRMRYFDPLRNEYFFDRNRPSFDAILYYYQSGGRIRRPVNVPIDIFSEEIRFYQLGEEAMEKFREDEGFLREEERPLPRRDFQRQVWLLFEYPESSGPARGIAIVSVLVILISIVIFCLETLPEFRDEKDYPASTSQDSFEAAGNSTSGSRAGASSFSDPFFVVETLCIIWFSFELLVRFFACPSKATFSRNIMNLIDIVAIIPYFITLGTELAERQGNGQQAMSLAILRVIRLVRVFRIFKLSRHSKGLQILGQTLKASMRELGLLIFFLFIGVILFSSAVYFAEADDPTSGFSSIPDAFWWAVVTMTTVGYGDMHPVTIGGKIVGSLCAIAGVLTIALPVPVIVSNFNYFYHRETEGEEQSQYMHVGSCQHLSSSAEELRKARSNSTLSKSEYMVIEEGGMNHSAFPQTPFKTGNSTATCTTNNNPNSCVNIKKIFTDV

T1 sequence (Q09470 whole entry): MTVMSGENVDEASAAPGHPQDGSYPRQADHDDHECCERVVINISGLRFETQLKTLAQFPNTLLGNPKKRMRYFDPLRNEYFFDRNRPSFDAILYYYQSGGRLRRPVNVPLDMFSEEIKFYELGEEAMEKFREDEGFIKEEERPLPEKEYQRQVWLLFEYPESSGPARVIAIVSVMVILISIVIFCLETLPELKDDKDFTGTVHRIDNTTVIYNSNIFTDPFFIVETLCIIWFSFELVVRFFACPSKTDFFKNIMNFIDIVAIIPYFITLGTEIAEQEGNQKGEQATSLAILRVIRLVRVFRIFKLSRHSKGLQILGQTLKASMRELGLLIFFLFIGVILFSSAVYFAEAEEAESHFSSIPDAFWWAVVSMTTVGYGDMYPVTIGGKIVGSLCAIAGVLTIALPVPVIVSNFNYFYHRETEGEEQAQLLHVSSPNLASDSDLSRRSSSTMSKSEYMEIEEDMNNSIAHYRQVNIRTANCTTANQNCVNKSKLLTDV
T2 sequence (P16389 whole entry): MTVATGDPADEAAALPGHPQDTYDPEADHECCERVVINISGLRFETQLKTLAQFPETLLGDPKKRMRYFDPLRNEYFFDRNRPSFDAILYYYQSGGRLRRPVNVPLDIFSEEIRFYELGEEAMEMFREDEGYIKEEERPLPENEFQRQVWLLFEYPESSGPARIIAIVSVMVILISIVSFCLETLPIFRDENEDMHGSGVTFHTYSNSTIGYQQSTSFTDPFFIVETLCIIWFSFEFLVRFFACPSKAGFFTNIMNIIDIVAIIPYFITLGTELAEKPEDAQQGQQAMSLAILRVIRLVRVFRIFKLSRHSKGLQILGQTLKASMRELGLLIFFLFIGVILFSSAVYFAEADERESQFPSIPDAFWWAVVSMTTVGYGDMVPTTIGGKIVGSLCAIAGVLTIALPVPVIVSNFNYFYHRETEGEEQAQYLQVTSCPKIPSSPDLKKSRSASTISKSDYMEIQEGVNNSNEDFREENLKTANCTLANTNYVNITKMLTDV
T3 sequence (P17658 whole entry): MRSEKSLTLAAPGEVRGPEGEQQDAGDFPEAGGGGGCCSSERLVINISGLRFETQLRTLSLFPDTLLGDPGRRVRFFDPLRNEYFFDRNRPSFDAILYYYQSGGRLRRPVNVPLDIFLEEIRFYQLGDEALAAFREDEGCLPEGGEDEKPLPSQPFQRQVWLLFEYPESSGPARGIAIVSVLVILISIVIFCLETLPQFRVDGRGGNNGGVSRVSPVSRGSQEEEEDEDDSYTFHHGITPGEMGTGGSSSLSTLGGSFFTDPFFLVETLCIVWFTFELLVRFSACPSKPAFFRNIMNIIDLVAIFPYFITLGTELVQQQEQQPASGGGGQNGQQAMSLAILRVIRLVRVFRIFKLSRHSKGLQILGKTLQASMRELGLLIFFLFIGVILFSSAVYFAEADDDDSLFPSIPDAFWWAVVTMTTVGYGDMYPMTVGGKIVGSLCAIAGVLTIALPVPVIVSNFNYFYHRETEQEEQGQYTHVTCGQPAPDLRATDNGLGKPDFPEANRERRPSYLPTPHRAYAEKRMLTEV

Substance: Ac-LRC(1)SASVEC(2)KQKC(3)LAAIGSIFGKC(1)MNKKC(2)KC(3)YPR-OH [Peptide 123]
- IC50 [1]: 0.36 nM

Substance: Ac-LRC(1)SASVEC(2)KQKC(3)LAAIGSIFGKC(1)[Nle]NKKC(2)KC(3)YPR-OH [Peptide 122]
- IC50 [1]: 0.9 nM

Substance: H-AAAISCVGSPECPPKCRAQGCKNGKCMNRKCKCYYC-NH2 [Vm24, reference compound]
- IC50 [2]: 0.097 nM
- Selectivity Kv1.1/Kv1.3 [2]: 0.65
- IC50 [3]: 4.7 nM
- Selectivity Kv1.2/Kv1.3 [3]: 31
- IC50 [4]: 21 nM
- Selectivity Kv1.6/Kv1.3 [4]: 139
- IC50 [5]: 0.15 nM

Substance: H-C(1)SASVEC(2)KQKC(3)LKAIGC(4)IFGKC(1)[Nle]NKKC(2)KC(3)YPC(4)-NH2 [Peptide 89]
- IC50 [1]: 1.1 nM

Substance: H-LRC(1)SASVEC(2)KQKC(3)LKAIGSIFGKC(1)[Nle]NKKC(2)KC(3)YPR-OH [Peptide 115]
- IC50 [1]: 2.1 nM

Substance: H-NMDMRC(1)KASVEC(2)KQKC(3)LKAIGSIFGKC(1)MNKKC(2)KC(3)YPR-NH2 [Peptide 26]
- IC50 [2]: > 3000 nM
- Selectivity Kv1.1/Kv1.3 [2]: >34200
- IC50 [3]: 67 nM
- Selectivity Kv1.2/Kv1.3 [3]: 761
- IC50 [4]: 363 nM
- Selectivity Kv1.6/Kv1.3 [4]: 4144
- IC50 [5]: 0.09 nM

Substance: H-NMDMRC(1)SASVEC(2)KQKC(3)LAIGSIFGKC(1)MNKKC(2)KC(3)YPR-NH2 [Peptide 55]
- IC50 [2]: > 3000 nM
- Selectivity Kv1.1/Kv1.3 [2]: >1200
- IC50 [3]: 291 nM
- Selectivity Kv1.2/Kv1.3 [3]: 121
- IC50 [4]: > 3000 nM
- Selectivity Kv1.6/Kv1.3 [4]: >1200
- IC50 [5]: 2.41 nM

Substance: H-NMDMRC(1)SASVEC(2)KQKC(3)LKAIGSIFGKC(1)MNKKC(2)VC(3)YPR-NH2 [Peptide 39]
- IC50 [1]: 2.8 nM

Substance: H-NMDMRC(1)SASVEC(2)KQKC(3)LKAIHSIFGKC(1)MNKKC(2)KC(3)YPR-NH2 [Peptide 34]
- IC50 [1]: 0.7 nM

Substance: H-NMDMRC(1)SASVEC(2)KQKC(3)LKAYGSIFGKC(1)MNKKC(2)KC(3)YPR-NH2 [Peptide 59]
- IC50 [2]: > 3000 nM
- Selectivity Kv1.1/Kv1.3 [2]: >8800
- IC50 [3]: 145 nM
- Selectivity Kv1.2/Kv1.3 [3]: 426
- IC50 [4]: > 3000 nM
- Selectivity Kv1.6/Kv1.3 [4]: >8800
- IC50 [5]: 0.34 nM

Substance: H-NMDMRC(1)SASVEC(2)KQKC(3)LKRIGSIFGKC(1)MNKKC(2)KC(3)YPR-NH2 [Peptide 57]
- IC50 [2]: > 3000 nM
- Selectivity Kv1.1/Kv1.3 [2]: >9900
- IC50 [3]: 57 nM
- Selectivity Kv1.2/Kv1.3 [3]: 187
- IC50 [4]: 932 nM
- Selectivity Kv1.6/Kv1.3 [4]: 3062
- IC50 [5]: 0.3 nM

Substance: H-NMDMRC(1)SASVEC(2)KQKC(3)LKYIGSIFGKC(1)MNKKC(2)KC(3)YPR-NH2 [Peptide 56]
- IC50 [5]: 0.12 nM

Substance: H-NMDMRC(1)SASVEC(2)KQKC(3)RKAIGSIFGKC(1)MNKKC(2)KC(3)YPR-NH2 [Peptide 52]
- IC50 [5]: 0.25 nM

Substance: H-NMDMRC(1)SASVEC(2)KQKC(3)YKAIGSIFGKC(1)MNKKC(2)KC(3)YPR-NH2 [Peptide 51]
- IC50 [5]: 0.27 nM

Substance: H-NMEMRC(1)SASVEC(2)KQKC(3)LKAIGSIFGKC(1)MNKKC(2)KC(3)YPR-OH [Peptide 13]
- IC50 [2]: > 3000 nM
- Selectivity Kv1.1/Kv1.3 [2]: >27600
- IC50 [3]: 228 nM
- Selectivity Kv1.2/Kv1.3 [3]: 2093
- IC50 [4]: > 3000 nM
- Selectivity Kv1.6/Kv1.3 [4]: >27600
- IC50 [5]: 0.11 nM

Substance: H-N[Nle]D[Nle]RC(1)SASVEC(2)EQKC(3)LKAIGSIFGKC(1)[Nle]NKKC(2)KC(3)YPR-NH2 [Peptide 44]
- IC50 [1]: 0.99 nM

Substance: H-N[Nle]D[Nle]RC(1)SASVEC(2)KQKC(3)LKAIGSIFGKC(1)MNKKC(2)KC(3)YPR-NH2 [Peptide 40]
- IC50 [5]: 0.15 nM

Substance: H-N[Nle]D[Nle]RC(1)SASVEC(2)KQKC(3)LKAIGSIFGKC(1)[Nle]NKKC(2)KC(3)YPR-NH2 [Peptide 41]
- IC50 [2]: > 3000 nM
- Selectivity Kv1.1/Kv1.3 [2]: >11600
- IC50 [3]: 113 nM
- Selectivity Kv1.2/Kv1.3 [3]: 436
- IC50 [4]: 1830 nM
- Selectivity Kv1.6/Kv1.3 [4]: 7073
- IC50 [5]: 0.26 nM

Substance: H-N[Nle]D[Nle]RC(1)SASVEC(2)QQKC(3)LKAIGSIFGKC(1)[Nle]NKKC(2)KC(3)YPR-NH2 [Peptide 45]
- IC50 [1]: 1.1 nM

Substance: H-PIDERC(1)SASVEC(2)KQKC(3)LAAIGSIFGKC(1)[Nle]NKKC(2)KC(3)YPR-OH [Peptide 104]
- IC50 [1]: 0.87 nM

Substance: H-P[Nle]D[Nle]RC(1)SASVEC(2)AQKC(3)LAAIGSIFGKC(1)MNKKC(2)KC(3)YPR-OH [Peptide 106]
- IC50 [1]: 0.32 nM

Substance: H-P[Nle]D[Nle]RC(1)SASVEC(2)KEKC(3)L[homo-Gln]AIGSIFGKC(1)[Nle]NKKC(2)KC(3)YPR-NH2 [Peptide 88]
- IC50 [1]: 1.4 nM

Substance: H-P[Nle]D[Nle]RC(1)SASVEC(2)KQKC(3)LKAIGC(4)IFGKC(1)[Nle]NKKC(2)KC(3)YPC(4)-OH [Peptide 86]
- IC50 [1]: 1.1 nM

Substance: H-P[Nle]E[Nle]RC(1)SASVEC(2)KQKC(3)LLAIGSIFGKC(1)[Nle]NKKC(2)KC(3)YPR-OH [Peptide 103]
- IC50 [1]: 0.5 nM

Substance: H-RSCIDTIPKSRCTAFQCKHSMKYRLSFCRKTCGTC-OH [ShK, reference compound]
- IC50 [3]: 11 nM
- IC50 [4]: 0.19 nM

Substance: H-S[Nle]D[Nle]RC(1)SASVEC(2)AQKC(3)LAAIGSIFGKC(1)MNKKC(2)KC(3)YPR-NH2 [Peptide 82]
- IC50 [5]: 0.16 nM

Substance: H-S[Nle]D[Nle]RC(1)SASVEC(2)KEKC(3)LQAIGSIFGKC(1)[Nle]NKKC(2)KC(3)YPR-NH2 [Peptide 87]
- IC50 [1]: 0.69 nM

Substance: H-S[Nle]D[Nle]RC(1)SASVEC(2)KQKC(3)LAAIGC(4)IFGKC(1)[Nle]NKKC(2)KC(3)YPC(4)-NH2 [Peptide 90]
- IC50 [1]: 0.73 nM

Substance: H-S[Nle]D[Nle]RC(1)SASVEC(2)KQKC(3)LKAIGSIFGKC(1)MNKKC(2)KC(3)YQ-NH2 [Peptide 76]
- IC50 [1]: 1.6 nM

Substance: H-S[Nle]D[Nle]RC(1)SASVEC(2)KQKC(3)LKAIGSIFGKC(1)MNKKC(2)KC(3)[F(4-CH3)]PR-NH2 [Peptide 96]
- IC50 [1]: 0.54 nM

Substance: H-S[Nle]D[Nle]RC(1)SASVEC(2)KQKC(3)LKAIGSIFGKC(1)MNKKC(2)KC(3)[F(4-F)]PR-NH2 [Peptide 94]
- IC50 [1]: 0.34 nM

Substance: H-S[Nle]D[Nle]RC(1)SASVEC(2)KQKC(3)LKAIGSIFGKC(1)MNKKC(2)KC(3)[F(4-NO2)]PR-NH2 [Peptide 95]
- IC50 [1]: 1.3 nM

Substance: H-S[Nle]D[Nle]RC(1)SASVEC(2)KQKC(3)LKAIGSIFGKC(1)[Nle]NKKC(2)KC(3)YPR-OH [Peptide 68]
- IC50 [1]: 0.52 nM

Substance: H-S[Nle]D[Nle]RC(1)SASVEC(2)KQKC(3)LKAIGSIFG[homo-Lys]C(1)MNKKC(2)KC(3)YPR-NH2 [Peptide 71]
- IC50 [1]: 2.7 nM

Substance: H-S[Nle]D[Nle]RC(1)SASVEC(2)KQKC(3)LVAIGSIFGKC(1)MNKKC(2)KC(3)YPR-NH2 [Peptide 80]
- IC50 [1]: 0.39 nM

Substance: H-S[Nle]D[Nle]RC(1)SASVEC(2)K[2-Amino-5-carboxypentanoyl]KC(3)LKAIGSIFGKC(1)MNKKC(2)KC(3)YPR-NH2 [Peptide 75]
- IC50 [1]: 0.52 nM

Substance: H-S[Nle]D[Nle]RC(1)SASVEC(2)VQKC(3)LKAIGSIFGKC(1)MNKKC(2)KC(3)YPR-NH2 [Peptide 74]
- IC50 [1]: 0.47 nM

Substance: H-S[Nle]D[Nle]RC(1)SA[Abu]VEC(2)KQKC(3)LKAIGSIFGKC(1)MNKKC(2)KC(3)YPR-NH2 [Peptide 70]
- IC50 [1]: 0.93 nM
